# According to BindingDB's records for patent US20250136596 (Insilico Medicine IP, 2025):
# Target: T1, Membrane-associated tyrosine- and threonine-specific cdc2-inhibitory kinase (Homo sapiens, UniProt Q99640)
# T1 sequence (Q99640 whole entry): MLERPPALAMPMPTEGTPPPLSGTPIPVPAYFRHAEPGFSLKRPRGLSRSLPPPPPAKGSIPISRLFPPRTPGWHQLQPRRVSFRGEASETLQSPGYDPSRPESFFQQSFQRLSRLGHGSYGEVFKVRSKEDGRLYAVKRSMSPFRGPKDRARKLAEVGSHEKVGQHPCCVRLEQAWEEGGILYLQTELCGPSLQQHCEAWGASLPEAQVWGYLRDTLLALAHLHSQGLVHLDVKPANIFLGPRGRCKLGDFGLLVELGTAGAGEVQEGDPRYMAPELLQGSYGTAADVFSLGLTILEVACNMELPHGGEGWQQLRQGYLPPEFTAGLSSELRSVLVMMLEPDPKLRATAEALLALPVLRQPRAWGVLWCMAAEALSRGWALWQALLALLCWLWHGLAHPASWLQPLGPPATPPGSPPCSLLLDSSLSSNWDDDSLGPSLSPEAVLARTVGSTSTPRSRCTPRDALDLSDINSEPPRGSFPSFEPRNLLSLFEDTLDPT
# Experiment: PKMYT1 HTRF Assay
# Description: Compound serial dilution is performed by Echo, and the final concentrations vary from 10 μM to 0.5 nM. This was filled by the addition of 5 μL/well of Enzyme solution to the assay plate containing the compound. The plate was centrifuged at 1000 rpm for 1 minute, and incubate 15 minutes at 25 […]. Then 5 μL/well of tracer solution (Tracer 178) was added to initiate the reaction, and incubate for 60 minutes at 25° C. Next 5 μL GST-Tb was added into the assay plate, the plate was centrifuged at 1000 rpm for 1 minute, and incubate for 15 minutes at 25 […]. The assay plate was read on Envision.
row,Compound,IC50
1,"Cc1ncc(-c2cc3c(Cl)c(-c4c(C)ccc(O)c4C)cnc3[nH]2)cn1 [US20250136596, Example 23]",< 10 nM
2,"Cc1ncc(-c2[nH]c3ncc(-c4c(C)ccc(O)c4C)c(C#N)c3c2F)cn1 [US20250136596, Example 35]",< 10 nM
3,"CNc1ncc(-c2cc3c(C#N)c(-c4c(C)ccc(O)c4C)cnc3[nH]2)cn1 [US20250136596, Example 41]",< 10 nM
4,"COc1ncc(-c2cc3c(C#N)c(-c4c(C)ccc(O)c4C)cnc3[nH]2)cn1 [US20250136596, Example 51]",< 10 nM
5,"Cc1ccc(O)c(C)c1-c1cnc2[nH]c(-c3cncc(C#N)c3)cc2c1C#N [US20250136596, Example 61]",< 10 nM
6,"Cc1ccc(O)c(C)c1-c1cnc2[nH]c(-c3cnc(N)c(C(F)(F)F)c3)cc2c1C#N [US20250136596, Example 62]",< 10 nM
7,"Cc1ccc(O)c(C)c1-c1cnc2[nH]c(-c3cnc(S(C)(=O)=O)nc3)cc2c1C#N [US20250136596, Example 95]",< 10 nM
8,"Cc1ncc(-c2[nH]c3ncc(-c4c(C)ccc(O)c4C)c(C#N)c3c2C)cn1 [US20250136596, Example 107]",< 10 nM
9,"Cc1ccc(O)c(C)c1-c1cnc2[nH]c(-c3cnc4cn[nH]c4c3)cc2c1C#N [US20250136596, Example 124]",< 10 nM
